In patent US10398689B2, “Benzopiperidine derivative, preparation method thereof and medical use thereof” (Jiangsu Hengrui Medicine Co., Ltd., priority 2015, dated 2019):

Key:
ER (estrogen receptor) = target: T1, ER (estrogen receptor) (Homo sapiens, UniProt P03372); assay: Inhibition of the binding of estrogen (E) to estrogen receptor (ER), MCF-7/ERE-luciferase reporter cells; assay type: cell-based; settings: MCF-7/ERE-luciferase cells, 0.1 nM estradiol, 24 hours, chemiluminescence; read-out: IC50 value of inhibition effect on the binding of E to ER
T1 construct: MCF-7/ERE-luciferase monoclonal cells were selected by transfection of MCF-7; host or cells: MCF-7/ERE-luciferase (only the ERE-luciferase reporter was transfected)
T1 sequence (P03372 1-595): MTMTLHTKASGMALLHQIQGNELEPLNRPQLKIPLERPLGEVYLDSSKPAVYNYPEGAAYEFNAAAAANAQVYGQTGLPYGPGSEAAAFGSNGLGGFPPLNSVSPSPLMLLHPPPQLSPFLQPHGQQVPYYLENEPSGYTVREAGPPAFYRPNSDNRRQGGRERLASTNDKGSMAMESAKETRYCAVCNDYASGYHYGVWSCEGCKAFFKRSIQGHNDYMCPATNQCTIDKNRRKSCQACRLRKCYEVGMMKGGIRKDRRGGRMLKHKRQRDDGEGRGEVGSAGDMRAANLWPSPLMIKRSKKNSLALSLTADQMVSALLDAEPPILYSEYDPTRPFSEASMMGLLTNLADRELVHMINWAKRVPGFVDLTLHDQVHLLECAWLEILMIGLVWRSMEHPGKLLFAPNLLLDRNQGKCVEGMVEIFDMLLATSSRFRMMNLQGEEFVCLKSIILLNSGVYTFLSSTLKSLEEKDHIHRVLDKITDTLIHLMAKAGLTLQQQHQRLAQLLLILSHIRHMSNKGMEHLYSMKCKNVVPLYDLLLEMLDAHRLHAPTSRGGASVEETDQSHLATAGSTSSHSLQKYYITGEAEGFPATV
Outline: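 MCF-7 cells stably carrying an ERE-luciferase reporter, grown in charcoal-stripped FBS medium, were treated with compound plus 0.1 nM estradiol for 24 h at 37 °C. Luciferase chemiluminescence was then read and plotted against log compound concentration to derive IC50.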

ERα = target: T2, ERα (Homo sapiens, UniProt P03372); assay: Degradation effect on ERα in MCF-7 cells (ERα Duoset ELISA); assay type: cell-based; settings: MCF7; compound at 3 μM, relative to positive control AZD-9496 at 3 μM set to 100%
T2 construct: host or cells: MCF-7
T2 sequence (P03372 1-595): T1 sequence (P03372 1-595)
Protocol: In order to determine the degradation effect on ER induced by the compound of present invention, the following method was used to determine the degradation effect of the compounds of the present invention on ER.
MCF-7 cell line (TChu 74, Cell Bank of Chinese Academy of Sciences typical culture preservation Committee)
ERα Duoset Kit (#DYC5715E, R&D System)
MCF-7 cells well incubated in DMEM/F-12 medium containing 10% FBS.
On the first day of the experiment, MCF-7 cells were resuspended in DMEM/F-12 medium containing 10% FBS treated by activated carbon, then inoculated into a 48-well plate with a density of 50,000 cells/well and incubated for 22-24 hours.
On the second day of the experiment, the test compound was diluted with medium and added to a 48-well plate. The ERα-capture antibody was diluted to 1 μg/ml with PBS, and added with 100 μl/well to a 96-well plate at 100 μl/well. The plate was sealed and coated overnight at room temperature.
On the third day of the experiment, the coated 96-well plate was washed twice with PBS, added with a sealing solution (1% BSA in PBS) at 110 μl/well and sealed for 1 hour at room temperature. The 48-well plate was washed once and the residual liquid was removed. Then, 60 μl of lysis buffer (6 M urea, 1 mM EDTA, 0.5% Triton X-100, 1 mM PMSF, Protease Inhibitor cocktail) was added to each well. After lysis on ice for 15 minutes, the diluent (1 mM EDTA, 0.5% TritonX-100 dissolved in PBS) was added. The cell-diluted lysate was transferred to a 96-well plate at 100 μl/well, then the plate was incubated at room temperature for 2 hours. The diluted primary antibody was added after the plate was washed 4 times with a washing liquid (PBST). After incubation for 1 hour, the 96-well plate was washed 4 times, and the second antibody was added, then the plate was incubated for 30 minutes. After the plate was washed with a washing liquid, TMB chromogenic solution was added and incubated for 15 minutes. The reaction was stopped by the addition of 1 M H2SO4, then the light absorption at a wavelength of 450 nm was read. The degradation effect of the compound AZD9496 at 3 μM was set to 100%, the Emax of other compounds=(ODnegative control−ODcompound 3 μM)/(ODnegative control−ODAZD9496 3 μM)×100%, and the negative control was a well with DMSO.

In the case of `CCc1ccc(N2C(C)Cc3cc(-c4cnn(C)c4)ccc3C2c2ccc(/C=C/C(=O)O)cc2)cc1` [Example 1, (E)-3-(4-((1R,3R/1S,3S)-2-(4-Ethylphenyl)-3-methyl-6-(1-methyl-1H-pyrazol-4-yl)-1,2,3,4-tetrahydroisoquinolin-1-yl)phenyl)acrylic acid], the IC50 (ER (estrogen receptor)) is reported as 2110 pM and the Emax at 3 µM (ERα) is reported as 115%.

In the case of `CCn1cc(-c2ccc3c(c2)CC(C)N(c2ccc(C(C)C)cc2)C3c2ccc(/C=C/C(=O)O)cc2)cn1` [Example 7, (E)-3-(4-((1R,3R/1S,3S)-6-(1-Ethyl-1H-pyrazol-4-yl)-2-(4-isopropylphenyl)-3-methyl-1,2,3,4-tetrahydroisoquinolin-1-yl)phenyl)acrylic acid], the IC50 (ER (estrogen receptor)) is reported as 1790 pM and the Emax at 3 µM (ERα) is reported as 118%.

Work on `CCn1cc(-c2ccc3c(c2)C[C@@H](C)N(c2ccc(C(C)C)cc2)[C@@H]3c2ccc(/C=C/C(=O)O)cc2)cn1` [Example 8, (E)-3-(4-((1R,3R)-6-(1-Ethyl-1H-pyrazol-4-yl)-2-(4-isopropylphenyl)-3-methyl-1,2,3,4-tetrahydroisoquinolin-1-yl)phenyl)acrylic acid] yielded an IC50 (ER (estrogen receptor)) of 390 pM and an Emax at 3 µM (ERα) of 129%.

Compound `C[C@@H]1Cc2cc(-c3cnn(C)c3)ccc2[C@@H](c2ccc(/C=C/C(=O)O)cc2)N1c1ccc(C2CC2)cc1` [Example 11, (E)-3-(4-((1R,3R)-2-(4-Cyclopropylphenyl)-3-methyl-6-(1-methyl-1H-pyrazol-4-yl)-1,2,3,4-tetrahydroisoquinolin-1-yl)phenyl)acrylic acid] has an IC50 (ER (estrogen receptor)) of 320 pM and an Emax at 3 µM (ERα) of 134%.

`CCn1cc(-c2ccc3c(c2)C[C@@H](C)N(c2ccc(C4CC4)cc2)[C@@H]3c2ccc(/C=C/C(=O)O)cc2)cn1` [Example 14, (E)-3-(4-((1R,3R)-2-(4-Cyclopropylphenyl)-6-(1-ethyl-1H-pyrazol-4-yl)-3-methyl-1,2,3,4-tetrahydroisoquinolin-1-yl)phenyl)acrylic acid] was tested, and the IC50 (ER (estrogen receptor)) was 250 pM and the Emax at 3 µM (ERα) was 147%.

`CC(C)c1ccc(N2[C@H](c3ccc(/C=C/C(=O)O)cc3)c3ccc(-c4cnn(C)c4)cc3C[C@H]2C)cc1` [Example 42, (E)-3-(4-((1R,3R)-2-(4-Isopropylphenyl)-3-methyl-6-(1-methyl-1H-pyrazol-4-yl)-1,2,3,4-tetrahydroisoquinolin-1-yl)phenyl)acrylic acid] showed an IC50 (ER (estrogen receptor)) of 520 pM and an Emax at 3 µM (ERα) of 112%.
